In article PMC2441954, “Phase I pharmacokinetic and pharmacodynamic study of the prenyl transferase inhibitor AZD3409 in patients with advanced cancer” (British Journal of Cancer, 2008):
Read-outs that look alike come from different tables or passages of the source.

Assays:
[1] = Plasma pharmacokinetics (LC-MS/MS, noncompartmental) in phase I patients; assay type: in vivo, human; details: for Cmax / AUC: human, plasma, oral; for AUC: read-out: AUC0−τ
Description: Pharmacokinetic studies were performed in all patients. Ethylenediaminetetraacetic acid blood samples were collected during the first cycle: on day 1 before the first drug intake and 0.5, 1, 2, 4, 6, 8, 12 and 24 h after administration; on days 3, 8 and 15 before the morning drug intake and 2 h after administration; and on day 22 before the morning drug intake and 0.5, 1, 2, 4, 6, 8, 12 and 24 h after administration. Samples were immediately put on ice and centrifuged at 4°C for 10 min at 1500 g. The resulting plasma was stored at −70°C until analysis. Plasma samples of the last three patients were not measured as the study was stopped before analysis.
The total plasma concentrations of AZD3409 ester and AZD3409 acid were determined by LC–MS/MS. The plasma samples were treated with dithiothreitol to reduce any disulphide bonds. The sample pretreatment was based on protein precipitation with acidic acetonitrile. Isotopically labelled analogues were used as internal standards. The method has been validated regarding selectivity, accuracy, precision and stability in human plasma. The lower limit of quantification was 3 ng ml^−1 for both AZD3409 ester and AZD3409 acid, with a 50 μl sample volume.
The following PK parameters were determined, either by direct observation or by noncompartmental analysis (WinNonlin, version 5.0.1; Pharsight, Mountain View, CA, USA): the minimal plasma concentration (Cmin), the maximal plasma concentration (Cmax), the area under the curve within one dosing interval (AUC0−τ) and total plasma clearance (Cl/F). Correlations between dose and Cmax levels and between dose and AUC0−τ were analysed on day 1 using the nonparametric Spearman's ρ (Rs) correlation test. Accumulation was tested with an exact Wilcoxon's rank paired signed test. Linear measures mixed effects models were constructed with SAS (SAS Institute Inc., Cary, NC, USA) to determine the effect of the dose on the trough plasma concentrations of both metabolites. The daily dose, time (days), gender and age were considered to be a fixed effect, and the patient variable was considered to be a random effect. Owing to the distribution of the trough plasma concentration log transformation was applied.

FTase = biological target: FTase; set-up: method as in Stephens et al, 2003; details: Ki4B-Ras as substrate; ref Stephens et al, 2003; cited from earlier work
GGTase-1 = biological target: GGTase-1; set-up: method as in Stephens et al, 2003; details: Ki4B-Ras as substrate; ref Stephens et al, 2003; cited from earlier work
[2] = system: RT-112 urothelial cells xenografts; set-up: method as in Stephens et al, 2003; Kelly et al, 2005; details: mice bearing RT-112 xenografts; ref Stephens et al, 2003; Kelly et al, 2005; cited from earlier work
cytochrome P450 = system: cytochrome P450; set-up: method as in unpublished data; details: once daily oral dosing to rats for 28 days; ref unpublished data; cited from earlier work
[3] = healthy male volunteers; earlier trial, no reference given; cited from earlier work
Calu-6 xenograft = system: Calu-6 xenograft; set-up: method as in unpublished data; details: Calu-6 xenograft model, ref unpublished data, cited from earlier work
[4] = system: H-Ras-transformed mouse 3T3 fibroblasts (Hras5) xenografts; set-up: method as in Stephens et al, 2003; Kelly et al, 2005; details: mice bearing Hras5 xenografts; ref Stephens et al, 2003; Kelly et al, 2005; cited from earlier work
[5] = system: 253J-BV urothelial cells xenografts; set-up: method as in Stephens et al, 2003; Kelly et al, 2005; details: mice bearing 253J-BV xenografts; ref Stephens et al, 2003; Kelly et al, 2005; cited from earlier work
solid malignant tumour = test: Tumour response (RECIST) in phase I patients; assay type: in vivo, human
Description: Pretreatment evaluation included a complete medical history and physical examination. Measurable and evaluable disease was documented before the start of the study and during the study as a basis for the assessment of clinical activity of the treatment. Tumour response was recorded according to RECIST criteria ([Therasse et al, 2000]). Toxicity was monitored at each visit. All toxicities observed were graded according to the Common Toxicity Criteria, version 2.0 ([National Cancer Institute, 1998]). DLT was defined as any of the following events during the first treatment cycle: grade 3 or 4 anaemia or thrombocytopaenia, febrile neutropaenia grade 3, or grade 4 neutropaenia, grade 3 or 4 biochemical toxicity, grade 2 (or worse) nausea and vomiting despite optimal antiemetic therapy, grade 3 or 4 diarrhoea despite optimal loperamide support, failure to take study medication for 7 days or more within the first treatment cycle due to drug-related toxicity or any CTC grade 3 or 4 nonhaematological toxicity (excluding alopaecia). The MTD was defined as the dose below the dose at which two or three of three, or two or more of six patients experienced DLT during cycle 1.

[6] = set-up: method as in Kelly et al, 2005; details: rats, oral dosing, pilot mass balance study; ref Kelly et al, 2005; cited from earlier work
tumour cells = system: tumour cells; set-up: method as in Kelly et al, 2005; details: in vitro; corresponds to the μM values; ref Kelly et al, 2005; cited from earlier work
[7] = 500 mg once daily, day 1, dose 500 (once daily), N=3, mean (SD)
[8] = 500 mg once daily, day 22, dose 500 (once daily), N=2, absolute values
[9] = 750 mg b.i.d., day 1, dose 750 b.i.d., N=8, mean (SD)
[10] = 750 mg b.i.d., day 22, dose 750 b.i.d., N=3, mean (SD)
[11] = 1000 mg once daily, day 1, dose 1000 (once daily), N=3, mean (SD)
[12] = 1000 mg once daily, day 22, dose 1000 (once daily), N=3, mean (SD)
[13] = 1250 mg b.i.d., day 1, dose 1250 b.i.d., N=6, mean (SD)
[14] = 1250 mg b.i.d., day 22, dose 1250 b.i.d., N=4, mean (SD)
[15] = 1500 mg b.i.d., day 1, dose 1500 b.i.d., N=2, absolute values
[16] = 1750 mg b.i.d., day 1, dose 1750 b.i.d., N=4, mean (SD)
[17] = 1750 mg b.i.d., day 22, dose 1750 b.i.d., N=1

For `CSCC[C@H](NC(=O)c1cc(NC[C@@H]2C[C@H](S)CN2)ccc1CCc1ccc(F)cc1)C(=O)O` [AZD3409 acid], the “mean time at which Cmax was reached” value ([1]; cycle 1, plasma) was 2.7 h, the “Spearman correlation (Rs) between dose and AUC” value ([1]; day 1) was 0.52 and the “Spearman correlation (Rs) between dose and Cmax” value ([1]; day 1) was 0.43. For the same compound, the Cl/F ([1]; day 22, dose 500 (once daily), N=2, absolute values) was “[465–488] l h^−1”, the Cl/F ([1]; day 22, dose 750 b.i.d., N=3, mean (SD)) was 473 (155) l h^−1 and the Cl/F ([1]; day 22, dose 1000 (once daily), N=3, mean (SD)) was 710 (148) l h^−1. The Cl/F ([1]; day 22, dose 1250 b.i.d., N=4, mean (SD)) was 785 (311) l h^−1, the Cl/F ([1]; day 22, dose 1750 b.i.d., N=1) was 1706 L/h and the “Ratio AUC0−τ day 22/day 1” value ([1]; dose 500 (once daily), N=2, absolute values) was “[2.07–10.1]”. The “Ratio AUC0−τ day 22/day 1” value ([1]; dose 750 b.i.d., N=3, mean (SD)) was 9.29 (11.2), the “Ratio AUC0−τ day 22/day 1” value ([1]; dose 1000 (once daily), N=3, mean (SD)) was 2.10 (1.19) and the “Ratio AUC0−τ day 22/day 1” value ([1]; dose 1250 b.i.d., N=4, mean (SD)) was 1.95 (1.05). For the same compound, the “Ratio AUC0−τ day 22/day 1” value ([1]; dose 1750 b.i.d., N=1) was 1.23, the Cmax [1, 7] was 33.6 ng/mL and the AUC [1, 7] was 160 ng·h/mL. The Cmax [1, 8] was 95.9 to 111 ng/mL, the AUC [1, 8] was 712 to 775 ng·h/mL and the Cmax [1, 9] was 93.8 ng/mL. The AUC [1, 9] was 468 ng·h/mL, the Cmax [1, 10] was 138 ng/mL and the AUC [1, 10] was 934 ng·h/mL. It also gave a Cmax [1, 11] of 78.6 ng/mL, an AUC [1, 11] of 512 ng·h/mL and a Cmax [1, 12] of 106 ng/mL. For the same compound, the AUC [1, 12] was 904 ng·h/mL, the Cmax [1, 13] was 119 ng/mL and the AUC [1, 13] was 677 ng·h/mL. The Cmax [1, 14] was 168 ng/mL, the AUC [1, 14] was 1230 ng·h/mL and the Cmax [1, 15] was 83.5 to 148 ng/mL. For the same compound, the AUC [1, 15] was 458 to 749 ng·h/mL, the Cmax [1, 16] was 140 ng/mL and the AUC [1, 16] was 751 ng·h/mL. The Cmax [1, 17] was 165 ng/mL, the AUC [1, 17] was 466 ng·h/mL and the “mean trough total AZD3409 acid concentrations” value ([1]; twice daily dosing levels) was 36.3 to 81.9 ng/mL. The Ki (FTase) was < 1 nM and the Ki (GGTase-1) was 8 nM.

For `CSCC[C@H](NC(=O)c1cc(NC[C@@H]2C[C@H](SC(=O)c3cccnc3)CN2)ccc1CCc1ccc(F)cc1)C(=O)OC(C)C` [AZD3409], the tumour weight [2] is listed as “significant reduction of tumour weight”, the “changes in cytochrome P450 content or enzyme activity” value (cytochrome P450) is listed as “no biologically significant changes” and the “appearance of parent drug in blood” value ([1]; after oral administration, rapidly metabolised in the gut and plasma to AZD3409 ester) is listed as “does not appear in the blood”. For the same compound, the “dose at which diarrhoea was dose limiting” value [3] was 2500 mg once daily, the “maximum tolerated single dose” value [3] was 1750 mg and the “reduction of the tumour volume” value (Calu-6 xenograft; associated with 66% FTase inhibition) was 15%. For the same compound, the “inhibition of FTase” value (Calu-6 xenograft) was 66%, the tumour weight [4] was “significant reduction of tumour weight” and the tumour weight [5] was “significant reduction of tumour weight”. The objective tumour response (solid malignant tumour; 18 evaluable patients after 4–14 weeks of treatment) was “No objective tumour response was observed”, the “patients with stable disease” value (solid malignant tumour; out of 16 patients, after approximately 2 months) was 3 and the “patients with stable disease” value (solid malignant tumour; three of 18 evaluable patients, stable for 47, 48 and 76 days) was 17%. The “given radioactivity excreted in the urine” value [6] was 1% and the “IC50 inhibition of cell proliferation of tumour cells, converted” value (tumour cells) was 0.035 to 3.5 µg/mL.
